The target of assay [1] is purified human plasma kallikrein (Homo sapiens (Human), UniProt P03952). Kind of assay: biochemical. It counts as biochemical. As to conditions: read-out: Plasma Kallikrein Ki.
Assay [2] addresses purified human Factor XIa (Homo sapiens (Human), UniProt P03951). Kind of assay: biochemical. It counts as biochemical. To be noted: read-out: Factor XIa Ki.

Structures can show the parent of a compound that is named as a salt. Where only a bound is given, the exact number is not on record here.

purified human plasma kallikrein, sequence (P03952 whole entry, looked up): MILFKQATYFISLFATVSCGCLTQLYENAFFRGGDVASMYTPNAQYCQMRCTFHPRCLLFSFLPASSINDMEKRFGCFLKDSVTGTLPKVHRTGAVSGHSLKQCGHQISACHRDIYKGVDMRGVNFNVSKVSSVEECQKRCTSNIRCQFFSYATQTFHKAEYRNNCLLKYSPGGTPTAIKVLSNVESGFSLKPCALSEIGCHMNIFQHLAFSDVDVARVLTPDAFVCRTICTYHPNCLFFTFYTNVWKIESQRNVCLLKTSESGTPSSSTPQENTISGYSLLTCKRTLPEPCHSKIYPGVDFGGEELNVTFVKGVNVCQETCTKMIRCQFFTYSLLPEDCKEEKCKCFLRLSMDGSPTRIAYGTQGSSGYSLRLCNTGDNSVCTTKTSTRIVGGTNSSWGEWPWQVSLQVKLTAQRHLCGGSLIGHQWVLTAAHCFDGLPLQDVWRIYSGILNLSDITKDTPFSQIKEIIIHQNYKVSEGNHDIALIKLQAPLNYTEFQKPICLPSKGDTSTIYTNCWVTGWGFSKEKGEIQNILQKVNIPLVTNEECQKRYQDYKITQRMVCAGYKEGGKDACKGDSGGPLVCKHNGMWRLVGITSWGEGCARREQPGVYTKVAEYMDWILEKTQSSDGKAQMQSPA
purified human plasma kallikrein, sequence (P03952 whole entry partner, looked up): as the sequence (P03952 whole entry, looked up) above
purified human Factor XIa, sequence (P03951 whole entry, looked up): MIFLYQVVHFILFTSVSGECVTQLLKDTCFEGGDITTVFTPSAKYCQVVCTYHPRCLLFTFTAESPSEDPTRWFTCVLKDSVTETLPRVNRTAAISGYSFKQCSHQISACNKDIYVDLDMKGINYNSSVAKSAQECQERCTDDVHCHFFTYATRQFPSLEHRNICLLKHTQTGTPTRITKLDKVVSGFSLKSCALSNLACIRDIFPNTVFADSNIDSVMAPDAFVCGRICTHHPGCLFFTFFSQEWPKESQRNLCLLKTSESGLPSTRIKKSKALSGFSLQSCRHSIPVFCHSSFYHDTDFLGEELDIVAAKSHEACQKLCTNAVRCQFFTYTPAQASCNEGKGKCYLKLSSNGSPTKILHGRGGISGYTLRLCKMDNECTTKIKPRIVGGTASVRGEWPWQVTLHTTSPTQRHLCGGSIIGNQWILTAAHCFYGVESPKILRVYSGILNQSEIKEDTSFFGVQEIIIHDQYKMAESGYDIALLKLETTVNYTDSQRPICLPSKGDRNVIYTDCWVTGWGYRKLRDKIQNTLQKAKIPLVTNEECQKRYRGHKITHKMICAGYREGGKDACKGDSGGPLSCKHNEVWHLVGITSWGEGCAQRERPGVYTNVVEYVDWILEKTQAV
purified human Factor XIa, sequence (P03951 whole entry partner, looked up): as the sequence (P03951 whole entry, looked up) above

On to `C[C@@H]1CCC[C@H](N2CCC(c3c(C#N)ccc(Cl)c3F)=CC2=O)c2cc(ccn2)-c2cc(F)ccc2NC1=O` [Example 150, 4-chloro-3-fluoro-2-{1-[(10R,14S)-4-fluoro-10-methyl-9-oxo-8,16-diazatricyclo[13.3.1.0^2,7]nonadeca-1(19),2(7),3,5,15,17-hexaen-14-yl]-6-oxo-1,2,3,6-tetrahydropyridin-4-yl}benzonitrile], for which the Ki was 2.27 nM in assay [1] and 0.99 nM in assay [2].

On to `COC(=O)Nc1ccc2c(c1)C(=O)NCCCCC[C@H](N1CCC(c3c(F)ccc(Cl)c3F)=CC1=O)c1cc-2ccn1` [Example 152, Methyl N-[(15S)-15-[4-(3-chloro-2,6-difluorophenyl)-6-oxo-1,2,3,6-tetrahydropyridin-1-yl]-8-oxo-9,17-diazatricyclo[14.3.1.0^2,7]icosa-1(20),2(7),3,5,16,18-hexaen-5-yl]carbamate, TFA salt], for which the figures for the Ki in assay [1] and in assay [2] were 24.3 nM and 25.6 nM, respectively.

For `COC(=O)Nc1ccc2c(c1)NC(=O)[C@H](C)CCC[C@H](N1CCC(c3ccnc(N)c3)=CC1=O)c1cc-2ccn1` [Example 154, Methyl N-[(10R,14S)-14-[4-(2-aminopyridin-4-yl)-6-oxo-1,2,3,6-tetrahydropyridin-1-yl]-10-methyl-9-oxo-8,16-diazatricyclo[13.3.1.0^2,7]nonadeca-1(19),2,4,6,15,17-hexaen-5-yl]carbamate, 2 TFA salt], the Ki in assay [1] came to 118 nM; in assay [2], 23.6 nM.

As for `COC(=O)Nc1ccc2c(c1)NC(=O)[C@H](C)CCC[C@H](N1CCC(C3CCNCC3)=CC1=O)c1cc-2ccn1` [Example 155, Methyl N-[(10R,14S)-10-methyl-9-oxo-14-[6-oxo-4-(piperidin-4-yl)-1,2,3,6-tetrahydropyridin-1-yl]-8,16-diazatricyclo[13.3.1.0^2,7]nonadeca-1(19),2,4,6,15,17-hexaen-5-yl]carbamate, 2 TFA salt], the Ki was 199 nM in assay [1] and 4.88 nM in assay [2].

Turning to `COC(=O)Nc1ccc2c(c1)NC(=O)[C@H](C)CCC[C@H](N1CCC(c3cccc(Cl)n3)=CC1=O)c1cc-2ccn1` [Example 157, Methyl N-[(10R,14S)-14-[4-(6-chloropyridin-2-yl)-6-oxo-1,2,3,6-tetrahydropyridin-1-yl]-10-methyl-9-oxo-8,16-diazatricyclo[13.3.1.0^2,7]nonadeca-1(19),2,4,6,15,17-hexaen-5-yl]carbamate, 2 TFA salt], the results for the Ki in assay [1] and in assay [2] were 108 nM and 74.9 nM, respectively.

Turning to `COC(=O)Nc1ccc2c(c1)NC(=O)[C@H](C)CCC[C@H](N1CCC(C3CCCCN3C)=CC1=O)c1cc-2ccn1` (stereo partly drawn) [Example 158, Methyl N-[(10R,14S)-10-methyl-14-[4-(1-methylpiperidin-2-yl)-6-oxo-1,2,3,6-tetrahydropyridin-1-yl]-9-oxo-8,16-diazatricyclo[13.3.1.0^2,7]nonadeca-1(19),2,4,6,15,17-hexaen-5-yl]carbamate, 2 TFA salt], the Ki in assay [1] was 10900 nM; in assay [2], more than 404 nM.

For `COC(=O)Nc1ccc2c(c1)NC(=O)[C@H](C)CCC[C@H](N1CCC(C3CCCC(C)C3)=CC1=O)c1cc-2ccn1` (stereo partly drawn) [Example 159, Methyl N-[(10R,14S)-10-methyl-14-[4-(3-methylcyclohexyl)-6-oxo-1,2,3,6-tetrahydropyridin-1-yl]-9-oxo-8,16-diazatricyclo[13.3.1.0^2,7]nonadeca-1(19),2,4,6,15,17-hexaen-5-yl]carbamate, TFA salt (diastereomeric isomers)], the Ki worked out at 58.9 nM in assay [1] and 63.2 nM in assay [2].

As for `COC(=O)Nc1ccc2c(c1)NC(=O)[C@H](C)CCC[C@H](N1CCC(c3c(Br)ccc(Cl)c3F)=CC1=O)c1cccc-2c1` [Example 161, Methyl N-[(10R,14S)-14-[4-(6-bromo-3-chloro-2-fluorophenyl)-6-oxo-1,2,3,6-tetrahydropyridin-1-yl]-10-methyl-9-oxo-8-azatricyclo[13.3.1.0^2,7]nonadeca-1(19),2,4,6,15,17-hexaen-5-yl]carbamate], the values for the Ki in assay [1] and in assay [2] were 21.6 nM and 0.59 nM, respectively.

In the case of `C[C@@H]1CCC[C@H](N2CCC(c3c(F)ccc(Cl)c3F)=CC2=O)c2cccc(c2)-c2ccccc2NC1=O` [Example 162, (10R,14S)-14-[4-(3-chloro-2,6-difluorophenyl)-6-oxo-1,2,3,6-tetrahydropyridin-1-yl]-10-methyl-8-azatricyclo[13.3.1.0^2,7]nonadeca-1(19),2,4,6,15,17-hexaen-9-one], the results for the Ki in assay [1] and in assay [2] were 125 nM and 76.5 nM, respectively.

For `COC(=O)c1ccc2c(c1)-c1cccc(c1)[C@@H](N1CCC(c3c(Br)ccc(Cl)c3F)=CC1=O)CCC[C@@H](C)C(=O)N2` [Example 163, Methyl (10R,14S)-14-[4-(6-bromo-3-chloro-2-fluorophenyl)-6-oxo-1,2,3,6-tetrahydropyridin-1-yl]-10-methyl-9-oxo-8-azatricyclo[13.3.1.0^2,7]nonadeca-1(19),2,4,6,15,17-hexaene-4-carboxylate], the Ki was 224 nM in assay [1] and more than 398 nM in assay [2].

For the compound `COC(=O)c1ccc2c(c1)-c1cccc(c1)[C@@H](N1CCC(c3c(F)ccc(Cl)c3F)=CC1=O)CCC[C@@H](C)C(=O)N2` [Example 164, Methyl (10R,14S)-14-[4-(3-chloro-2,6-difluorophenyl)-6-oxo-1,2,3,6-tetrahydropyridin-1-yl]-10-methyl-9-oxo-8-azatricyclo[13.3.1.0^2,7]nonadeca-1(19),2,4,6,15,17-hexaene-4-carboxylate], the figures for the Ki in assay [1] and in assay [2] were 442 nM and more than 398 nM, respectively.

Regarding `COC(=O)c1ccc2c(c1)-c1cccc(c1)[C@H](N1CCC(c3c(F)ccc(Cl)c3F)=CC1=O)CCC[C@@H](C)C(=O)N2` [Example 165, Methyl (10R,14R)-14-[4-(3-chloro-2,6-difluorophenyl)-6-oxo-1,2,3,6-tetrahydropyridin-1-yl]-10-methyl-9-oxo-8-azatricyclo[13.3.1.0^2,7]nonadeca-1(19),2,4,6,15,17-hexaene-4-carboxylate], the Ki is 9470 nM in assay [1] and more than 398 nM in assay [2].

Turning to `C[C@@H]1CCC[C@H](N2CCC(c3c(F)ccc(Cl)c3F)=CC2=O)c2cccc(c2)-c2cc(C(=O)O)ccc2NC1=O` [Example 166, (10R,14S)-14-[4-(3-chloro-2,6-difluorophenyl)-6-oxo-1,2,3,6-tetrahydropyridin-1-yl]-10-methyl-9-oxo-8-azatricyclo[13.3.1.0^2,7]nonadeca-1(19),2,4,6,15,17-hexaene-4-carboxylic acid], the results for the Ki in assay [1] and in assay [2] were 113 nM and 6.38 nM, respectively.

As to `C[C@@H]1CCC[C@H](N2CCC(c3c(Br)ccc(Cl)c3F)=CC2=O)c2cccc(c2)-c2cc(C(=O)O)ccc2NC1=O` [Example 167, (10R,14S)-14-[4-(6-bromo-3-chloro-2-fluorophenyl)-6-oxo-1,2,3,6-tetrahydropyridin-1-yl]-10-methyl-9-oxo-8-azatricyclo[13.3.1.0^2,7]nonadeca-1(19),2,4,6,15,17-hexaene-4-carboxylic acid], the results for the Ki in assay [1] and in assay [2] were 20.1 nM and 0.81 nM, respectively.

Values taken from patent US9409908B2 (priority 2012, dated 2016).
